Reference: patent publication US20170008921A1, “C-3 NOVEL TRITERPENONE WITH C-28 REVERSE AMIDE DERIVATIVES AS HIV INHIBITORS” (HETERO RESEARCH FOUNDATION, priority 2015, published 2017)
Read-outs that look alike come from different tables or passages of the source.

Columns and labels:
[1] = system: HIV-1 strain 92HT599; assay: Antiviral activity against HIV-1 strain 92HT599 in MT2 cells (p24 estimation); type: cell-based; conditions: HIV-1 92HT599, ~96 hours
Protocol: MT2 cells were infected with HIV-1 strain 92HT599 (10 TCID 50/30000 cells). The infected cells were plated at the concentration of ˜30,000 cells per well in 96 well plate. Test compound was added to the micro plate in defined format with the final concentration of DMSO (vehicle) is not more than 1%. Incubation was carried out in CO2 incubator for ˜96 hours for viral infection. At the end of incubation period an aliquot from each well was taken for p24 estimation. The quantitation of p24 is an index for antiviral activity of the compound. Percent inhibition was calculated with reference to control values (vehicle controls). p24 estimation was carried out using Advance biosciences kit as per the procedure detailed by supplier.

[2] = system: pNL4-3 WT; assay: Antiviral activity against pNL4-3 WT strain in MT4 cells (p24 estimation); type: cell-based, HIV-1; conditions: 4 days
Protocol: (§1) MT4 cells were Transfected with HIV-1 Plasmid (pNL4-3-WT & V7A) (Cells were incubating with required number of TCID50 of HIV-1 for 1.5 h at 37° C.). After infection, the infected cells were plated at the concentration of 3×10^4 cells per well in 96 well plate. Test compound was added to the test plate in defined format with the final concentration of DMSO is not more than 1%. Incubation was carried out in CO2 incubator for 4 days for viral infection. At the end of incubation period an aliquot from each well was taken for p24 estimation. p24 estimation was carried out using Advance biosciences kit as per the procedure detailed by supplier.

[3] = system: pNL4-3 V7A; assay: Antiviral activity against pNL4-3 V7A strain in MT4 cells (p24 estimation); type: cell-based, HIV-1; conditions: 4 days
Protocol: as §1

[4] = system: cells; assay: Cyto-toxicity (MTT assay); type: cell-based; conditions: MTT, 4 days (Table 3)
[5] = Single dose oral pharmacokinetic study; type: in vivo; conditions: Mice oral PK @30 mg/kg; plasma; vehicle 10% Solutol+20% PEG
In short: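 Rats or mice dosed orally at 30 mg/kg in 10% Solutol+20% PEG. Acetonitrile precipitation, then LC-MS/MS quantification for PK parameters.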

For `CC(C)C1=C2[C@H]3CC[C@@H]4[C@@]5(C)CC[C@H](OC(=O)[C@H]6C[C@@H](C(=O)O)C6(C)C)C(C)(C)[C@@H]5CC[C@@]4(C)[C@]3(C)CC[C@@]2(NC(=O)C(C)(C)NS(=O)(=O)c2ccc(Cl)cc2)CC1=O` [Example 65, (1R,3S)-3-((((3aR,5aR,5bR,7aR,9S,11aR,11bR,13aS)-3a-(2-((4-chlorophenyl)sulfonamido)-2-methylpropanamido)-1-isopropyl-5a,5b,8,8,11a-pentamethyl-2-oxo-3,3a,4,5,5a,5b,6,7,7a,8,91,111,11a,11b,12,13,13a-octadecahydro-2H-cyclopenta[a]chrysen-9-yl)oxy)carbonyl)-2,2-dimethylcyclobutane-1-carboxylic acid], which IC50 ([1]; 0% serum binding assay, read-out: IC50 0% serum) is on record?
The IC50 was less than 3 nM.

What about the IC50 ([1]; 40% serum binding assay, read-out: IC50 40% serum) of the same compound?
The IC50 was less than 50 nM.

What about the IC50 [2] of the same compound?
The IC50 was greater than 10 nM.

And the IC50 [3]?
The IC50 was greater than 50 nM.

And the Cytotoxicity % viability ([4]; 0.01 μM)?
Its Cytotoxicity % viability is 27%.

And the Cytotoxicity % viability ([4]; 0.1 μM)?
Its Cytotoxicity % viability is 3%.

And the Cytotoxicity % viability ([4]; 1 μM)?
The Cytotoxicity % viability was 2%.

What about the AUC(0-t) [5] of the same compound?
The AUC(0-t) was 145.21 µg·h/mL.

What about the Cmax [5] of the same compound?
Its Cmax is 7383 ng/mL.
